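Tested at 5 concentrations; 48 h exposure; 96-well plates; endpoints linearly interpolated, else capped at highest concentration. Here, GI50 denotes the concentration required for 50% inhibition of growth. At the TGI there is no net growth.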 Where a SMILES comes first, the peptide text is derived from it. [ ]: non-standard residue; d: D form. The star is where a group is joined. Decanoyl = CCCCCCCCCC(=O)*; Leu(ol) = CC(C)C[C@H](N)CO; Iva = CC[C@](C)(N)C(=O)O; Aib = CC(C)(N)C(=O)O
Key:
Test in all cases: NCI tumour cell line growth inhibition, 48 h
[1] = tested on: 786-0 renal
[2] = tested on: A498 renal
[3] = tested on: A549 NSCLC
[4] = tested on: ACHN renal
[5] = tested on: BT-549 breast
[6] = tested on: CAKI-1 renal
[7] = tested on: CCRF-CEM leukemia
[8] = tested on: COLO 205 colon
[9] = tested on: DU-145 prostate
[10] = tested on: EKVX NSCLC
[11] = tested on: HCC-2998 colon
[12] = tested on: HCT-116 colon
[13] = tested on: HCT-15 colon
[14] = tested on: HL-60(TB) leukemia
[15] = tested on: HOP-62 NSCLC
[16] = tested on: HOP-92 NSCLC
[17] = tested on: HS 578T breast
[18] = tested on: HT29 colon
[19] = tested on: IGROV1 ovarian
[20] = tested on: K-562 leukemia
[21] = tested on: KM12 colon
[22] = tested on: LOX IMVI melanoma
[23] = tested on: M14 melanoma
[24] = tested on: MALME-3M melanoma
[25] = tested on: MCF7 breast
[26] = tested on: MDA-MB-231 breast
[27] = tested on: MDA-MB-435
[28] = tested on: MOLT-4 leukemia
[29] = tested on: NCI-H226 lung
[30] = tested on: NCI-H23 lung
[31] = tested on: NCI-H460 lung
[32] = tested on: NCI-H522 lung
[33] = tested on: NCI/ADR-RES ovarian
[34] = tested on: OVCAR-3 ovarian
[35] = tested on: OVCAR-4 ovarian
[36] = tested on: OVCAR-5 ovarian
[37] = tested on: OVCAR-8 ovarian
[38] = tested on: PC-3 prostate
[39] = tested on: RPMI-8226 leukemia
[40] = tested on: RXF 393 renal
[41] = tested on: SF-268 CNS
[42] = tested on: SF-295 CNS
[43] = tested on: SF-539 CNS
[44] = tested on: SK-MEL-2 melanoma
[45] = tested on: SK-MEL-28 melanoma
[46] = tested on: SK-MEL-5 melanoma
[47] = tested on: SK-OV-3 ovarian
[48] = tested on: SN12C renal
[49] = tested on: SNB-19 CNS
[50] = tested on: SNB-75 CNS
[51] = tested on: SR leukemia
[52] = tested on: SW-620 colon
[53] = tested on: T-47D breast
[54] = tested on: TK-10 renal
[55] = tested on: U251 CNS
[56] = tested on: UACC-257 melanoma
[57] = tested on: UACC-62 melanoma
[58] = tested on: UO-31 renal

Compound `CCCCCCCCCC(=O)NC(C)(C)C(=O)N1CCC[C@H]1C(=O)N[C@@H](CC(C)C)C(=O)N[C@@](C)(CC)C(=O)N[C@@H](CCC(N)=O)C(=O)N[C@H](CCC(N)=O)C(=O)NC(C)(C)C(=O)NC(C)(C)C(=O)N[C@@H](CCC(N)=O)C(=O)N[C@H](CC(C)C)C(=O)N[C@H](CO)CC(C)C` (Decanoyl-[Aib]PL[Iva]Q[dQ][Aib][Aib]Q[dL][Leu(ol)]) has a GI50 [1] of 1840 nM, a TGI [1] of 3500 nM and a GI50 [2] of 1980 nM. For the same compound, the TGI [2] was 3550 nM, the GI50 [3] was 1860 nM and the TGI [3] was 3850 nM. The GI50 [4] was 1860 nM, the TGI [4] was 3600 nM and the GI50 [5] was 1850 nM. It also gave a TGI [5] of 3300 nM, a GI50 [6] of 1700 nM and a TGI [6] of 3130 nM. For the same compound, the GI50 [7] was 1810 nM, the TGI [7] was 3600 nM and the GI50 [8] was 1860 nM. It also gave a TGI [8] of 3600 nM, a GI50 [9] of 1750 nM and a TGI [9] of 3130 nM. The GI50 [10] was 1700 nM, the TGI [10] was 3170 nM and the GI50 [11] was 1800 nM. The TGI [11] was 3390 nM, the GI50 [12] was 1850 nM and the TGI [12] was 3490 nM. For the same compound, the GI50 [13] was 1900 nM, the TGI [13] was 3790 nM and the GI50 [14] was 1870 nM. For the same compound, the TGI [14] was 3970 nM, the GI50 [15] was 1950 nM and the TGI [15] was 3800 nM. It also gave a GI50 [16] of 1640 nM, a TGI [16] of 3140 nM and a GI50 [17] of 1810 nM. For the same compound, the TGI [17] was 3510 nM, the GI50 [18] was 2010 nM and the TGI [18] was 3830 nM. The GI50 [19] was 1800 nM, the TGI [19] was 3360 nM and the GI50 [20] was 2440 nM. It also gave a GI50 [21] of 1830 nM, a TGI [21] of 3330 nM and a GI50 [22] of 1730 nM. The TGI [22] was 3290 nM, the GI50 [23] was 1770 nM and the TGI [23] was 3290 nM. The GI50 [24] was 1510 nM, the TGI [24] was 2890 nM and the GI50 [25] was 1780 nM. It also gave a TGI [25] of 3450 nM, a GI50 [26] of 1760 nM and a TGI [26] of 3260 nM. For the same compound, the GI50 [27] was 1750 nM, the TGI [27] was 3160 nM and the GI50 [28] was 2290 nM. It also gave a TGI [28] of 5900 nM, a GI50 [29] of 1880 nM and a TGI [29] of 3860 nM. For the same compound, the GI50 [30] was 1790 nM, the TGI [30] was 3520 nM and the GI50 [31] was 1890 nM. It also gave a TGI [31] of 3470 nM, a GI50 [32] of 1730 nM and a TGI [32] of 3330 nM. It also gave a GI50 [33] of 1830 nM, a TGI [33] of 3550 nM and a GI50 [34] of 1790 nM. The TGI [34] was 3250 nM, the GI50 [35] was 2050 nM and the TGI [35] was 4630 nM. For the same compound, the GI50 [36] was 1700 nM, the TGI [36] was 3070 nM and the GI50 [37] was 1840 nM. It also gave a TGI [37] of 3660 nM, a GI50 [38] of 1710 nM and a TGI [38] of 3300 nM. It also gave a GI50 [39] of 1920 nM, a TGI [39] of 3950 nM and a GI50 [40] of 1930 nM. For the same compound, the TGI [40] was 3450 nM, the GI50 [41] was 1760 nM and the TGI [41] was 3310 nM. The GI50 [42] was 1750 nM, the TGI [42] was 3260 nM and the GI50 [43] was 1720 nM. It also gave a TGI [43] of 3110 nM, a GI50 [44] of 1740 nM and a TGI [44] of 3240 nM. For the same compound, the GI50 [45] was 1690 nM, the TGI [45] was 3060 nM and the GI50 [46] was 1740 nM. For the same compound, the TGI [46] was 3170 nM, the GI50 [47] was 1930 nM and the TGI [47] was 3800 nM. It also gave a GI50 [48] of 1700 nM, a TGI [48] of 3170 nM and a GI50 [49] of 1700 nM. The TGI [49] was 3100 nM, the GI50 [50] was 1460 nM and the TGI [50] was 2790 nM. The GI50 [51] was 2250 nM, the GI50 [52] was 1860 nM and the TGI [52] was 3460 nM. For the same compound, the GI50 [53] was 2020 nM, the TGI [53] was 4310 nM and the GI50 [54] was 1780 nM. It also gave a TGI [54] of 3260 nM, a GI50 [55] of 1720 nM and a TGI [55] of 3220 nM. For the same compound, the GI50 [56] was 1750 nM, the TGI [56] was 3240 nM and the GI50 [57] was 1630 nM. The TGI [57] was 2980 nM, the GI50 [58] was 1600 nM and the TGI [58] was 2950 nM.

From PubChem BioAssay (NCI)
